Results: ChEMBL document CHEMBL1201862, “PubChem BioAssay data set” (2004)
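Assay format: 96-well plates, 48-hour exposure. At the GI50, growth is halved.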 Activity calls are given as the source filed them. No stated cut-off is given here; in the data, active = GI50 up to about 1.1 µM and inactive = higher.

Experiments:
Assay in all cases: inhibition of tumour cell growth, NCI panel, 48 h
MOLT-4 = test system: MOLT-4
SK-MEL-5 = test system: SK-MEL-5
PC-3 = test system: PC-3
UACC-62 = test system: UACC-62
NCI-H226 = test system: NCI-H226
SNB-19 = test system: SNB-19
M14 = test system: M14
OVCAR-5 = test system: OVCAR-5
Malme-3M = test system: Malme-3M
SN12C = test system: SN12C
IGROV-1 = test system: IGROV-1
SW-620 = test system: SW-620
KM12 = test system: KM12
RPMI-8226 = test system: RPMI-8226
UO-31 = test system: UO-31
LOX IMVI = test system: LOX IMVI
786-0 = test system: 786-0
MDA-N = test system: MDA-N
MCF7 = test system: MCF7
NCI/ADR-RES = test system: NCI/ADR-RES

Measured: GI50

Oc1ccccc1C(c1cc2c(cc1O)OCO2)N1CCOCC1 (stereo unspecified)
inactive: MOLT-4 8.24 µM | SK-MEL-5 17.3 µM | PC-3 16.3 µM | UACC-62 17 µM | NCI-H226 35.6 µM | SNB-19 19.1 µM | M14 17.9 µM | OVCAR-5 25 µM | Malme-3M 17.8 µM | SN12C 19.1 µM | IGROV-1 19.4 µM | SW-620 23 µM | KM12 19.8 µM | RPMI-8226 12.8 µM | UO-31 15.8 µM | LOX IMVI 17.1 µM | 786-0 4.89 µM | MDA-N 18.7 µM | MCF7 19.4 µM

CCOC(=O)Nc1sc2c(c1C#N)CCCC2
inactive: MOLT-4 62.5 µM | SK-MEL-5 71.6 µM | PC-3 66.4 µM | UACC-62 67.1 µM | NCI-H226 89.5 µM | SNB-19 89.5 µM | OVCAR-5 > 100 µM | Malme-3M > 100 µM | SN12C > 100 µM | IGROV-1 > 100 µM | SW-620 > 100 µM | KM12 25.9 µM | RPMI-8226 33 µM | UO-31 27.7 µM | LOX IMVI 63.8 µM | 786-0 > 100 µM | MDA-N 50.4 µM | MCF7 > 100 µM

O=C(O)C12C3CCC(O3)C1(C(=O)O)C1CCC2O1 (stereo unspecified)
inactive: MOLT-4 > 100 µM | SK-MEL-5 > 100 µM | PC-3 > 100 µM | UACC-62 > 100 µM | NCI-H226 > 100 µM | SNB-19 > 100 µM | OVCAR-5 > 100 µM | Malme-3M > 100 µM | SN12C > 100 µM | IGROV-1 > 100 µM | SW-620 > 100 µM | KM12 > 100 µM | RPMI-8226 > 100 µM | UO-31 > 100 µM | LOX IMVI > 100 µM | NCI/ADR-RES > 100 µM | 786-0 > 100 µM | MCF7 > 100 µM

N#C/C(=C1\OC(=N)C(c2ccccc2)C1=O)c1ccccc1 (stereo unspecified)
inactive: MOLT-4 18.7 µM | SK-MEL-5 26.9 µM | UACC-62 22.2 µM | NCI-H226 > 64.3 µM | SNB-19 > 100 µM | M14 24.4 µM | OVCAR-5 > 100 µM | Malme-3M 18.9 µM | SN12C 35 µM | IGROV-1 30.5 µM | SW-620 23.1 µM | KM12 48.2 µM | RPMI-8226 22.9 µM | UO-31 19.6 µM | LOX IMVI 33.6 µM | 786-0 25 µM

N#CC(=C1CCN(CCCC(=O)c2ccc(F)cc2)CC1)c1ccccc1
inactive: MOLT-4 > 100 µM | SK-MEL-5 > 100 µM | PC-3 > 100 µM | UACC-62 > 100 µM | NCI-H226 > 100 µM | SNB-19 > 100 µM | OVCAR-5 > 100 µM | Malme-3M > 100 µM | SN12C > 100 µM | IGROV-1 > 100 µM | SW-620 > 100 µM | KM12 > 100 µM | RPMI-8226 > 100 µM | UO-31 > 100 µM | LOX IMVI > 100 µM | NCI/ADR-RES > 100 µM | 786-0 > 100 µM | MCF7 > 100 µM

Nc1nc(Cl)cc(NCC(O)CO)n1 (stereo unspecified)
inactive: MOLT-4 > 100 µM | SK-MEL-5 > 100 µM | UACC-62 > 100 µM | NCI-H226 > 100 µM | SNB-19 > 100 µM | M14 > 100 µM | OVCAR-5 > 100 µM | Malme-3M > 100 µM | SN12C > 100 µM | IGROV-1 > 100 µM | SW-620 > 100 µM | KM12 > 100 µM | RPMI-8226 > 100 µM | UO-31 > 100 µM | LOX IMVI > 100 µM | 786-0 > 100 µM

O=C1C=CC(=O)c2ccc(=O)ccc21
inactive: MOLT-4 1.87 µM | SK-MEL-5 19.7 µM | PC-3 17.8 µM | UACC-62 13.7 µM | NCI-H226 34.8 µM | SNB-19 16.9 µM | M14 14.8 µM | OVCAR-5 19.9 µM | Malme-3M 18.1 µM | SN12C 17.3 µM | IGROV-1 18.8 µM | SW-620 3.74 µM | KM12 19.1 µM | RPMI-8226 3.15 µM | UO-31 15 µM | LOX IMVI 4.7 µM | 786-0 17.5 µM | MDA-N 13.3 µM | MCF7 28.8 µM

CC(=O)OC[C@H]1CN(OC(C)=O)C[C@@H](n2cc(C)c(=O)[nH]c2=O)O1
inactive: MOLT-4 > 100 µM | SK-MEL-5 > 100 µM | PC-3 > 100 µM | UACC-62 > 100 µM | NCI-H226 > 100 µM | SNB-19 > 100 µM | M14 > 100 µM | OVCAR-5 > 100 µM | SN12C > 100 µM | IGROV-1 > 100 µM | SW-620 > 100 µM | KM12 > 100 µM | RPMI-8226 > 100 µM | UO-31 > 100 µM | 786-0 > 100 µM | MDA-N > 100 µM | MCF7 > 100 µM

O=C1c2ccccc2C2(O)N(c3ccccc3)C(=S)N(c3ccccc3)C12O (stereo unspecified)
inactive: MOLT-4 > 100 µM | SK-MEL-5 > 100 µM | UACC-62 > 100 µM | NCI-H226 > 100 µM | SNB-19 > 100 µM | M14 > 100 µM | OVCAR-5 > 100 µM | Malme-3M > 100 µM | SN12C > 100 µM | IGROV-1 > 100 µM | SW-620 > 100 µM | KM12 > 100 µM | RPMI-8226 > 100 µM | UO-31 92.7 µM | LOX IMVI > 100 µM | 786-0 > 100 µM

O=c1cc(-c2ccccc2)oc2cc(Oc3nnnn3-c3ccccc3)ccc12
inactive: MOLT-4 32.4 µM | SK-MEL-5 15.1 µM | PC-3 39.4 µM | UACC-62 > 100 µM | NCI-H226 9.42 µM | SNB-19 55.8 µM | M14 36.5 µM | Malme-3M 33.4 µM | SN12C 60.8 µM | IGROV-1 98.4 µM | SW-620 > 100 µM | KM12 40.4 µM | RPMI-8226 51.4 µM | UO-31 19 µM | LOX IMVI 38.9 µM | 786-0 38.7 µM | MDA-N 41.5 µM | MCF7 16.3 µM

CN1CCc2cc3c4cc2C1Cc1ccc(cc1)Oc1cc(ccc1O)CC1c2c(cc(O)c(c2O4)O3)CCN1C (stereo unspecified)
inactive: MOLT-4 2.03 µM | SK-MEL-5 2.39 µM | UACC-62 2.02 µM | NCI-H226 2.07 µM | SNB-19 2.83 µM | M14 1.62 µM | OVCAR-5 8.2 µM | Malme-3M 1.81 µM | SN12C 3.63 µM | IGROV-1 4.43 µM | SW-620 2.22 µM | KM12 1.86 µM | RPMI-8226 1.64 µM | UO-31 3.44 µM | LOX IMVI 1.66 µM | 786-0 5.26 µM

O=C(c1ccccc1)N1C(=O)N(c2ccccc2)C(=N/c2ccccc2)/C1=N\c1ccccc1
inactive: MOLT-4 19.5 µM | SK-MEL-5 > 100 µM | PC-3 > 100 µM | UACC-62 4.18 µM | NCI-H226 18 µM | SNB-19 > 100 µM | OVCAR-5 99.1 µM | Malme-3M 69 µM | SN12C > 100 µM | IGROV-1 > 100 µM | SW-620 > 100 µM | KM12 13.5 µM | RPMI-8226 > 100 µM | UO-31 > 100 µM | LOX IMVI 9.25 µM | NCI/ADR-RES > 100 µM | 786-0 > 100 µM | MDA-N > 100 µM

Cc1ccc(S(=O)(=O)OCC/C(=C\[Si](C)(C)C)c2ccccc2)cc1
inactive: MOLT-4 > 100 µM | SK-MEL-5 > 100 µM | UACC-62 > 100 µM | NCI-H226 > 100 µM | SNB-19 > 100 µM | M14 > 100 µM | OVCAR-5 > 100 µM | Malme-3M > 100 µM | SN12C > 100 µM | IGROV-1 > 100 µM | SW-620 > 100 µM | KM12 > 100 µM | RPMI-8226 > 100 µM | UO-31 > 100 µM | LOX IMVI > 100 µM | 786-0 > 100 µM

CCc1c(OC(C)=O)c2c(NC3OCC(OC(C)=O)C(OC(C)=O)C3OC(C)=O)nc(SC)nc2oc1=O (stereo unspecified)
inactive: MOLT-4 > 100 µM | SK-MEL-5 > 100 µM | UACC-62 > 100 µM | NCI-H226 > 100 µM | SNB-19 > 100 µM | M14 > 100 µM | OVCAR-5 > 100 µM | Malme-3M > 100 µM | SN12C > 100 µM | IGROV-1 > 100 µM | SW-620 > 100 µM | KM12 > 100 µM | RPMI-8226 > 100 µM | UO-31 > 100 µM | LOX IMVI > 100 µM | 786-0 > 100 µM

COc1cccc(C2c3cc4c(cc3OC(N3CCCCC3)C2C)OCO4)c1OC (stereo unspecified)
inactive: MOLT-4 4.42 µM | SK-MEL-5 6.47 µM | PC-3 5.58 µM | UACC-62 12.9 µM | NCI-H226 3.93 µM | SNB-19 14.8 µM | M14 12.7 µM | OVCAR-5 17.7 µM | Malme-3M 11.9 µM | SN12C 5.73 µM | IGROV-1 5.16 µM | SW-620 3.93 µM | KM12 6.32 µM | RPMI-8226 3.44 µM | UO-31 7.05 µM | LOX IMVI 4.85 µM | 786-0 72.1 µM | MDA-N 11.2 µM | MCF7 5.71 µM

O=C(NC1CC1)c1c(O)[nH]c(=S)[nH]c1=O
inactive: MOLT-4 > 100 µM | SK-MEL-5 > 100 µM | UACC-62 > 100 µM | NCI-H226 > 100 µM | SNB-19 > 100 µM | M14 > 100 µM | OVCAR-5 > 100 µM | Malme-3M > 100 µM | SN12C > 100 µM | IGROV-1 > 100 µM | SW-620 > 100 µM | KM12 > 100 µM | RPMI-8226 > 100 µM | UO-31 > 100 µM | LOX IMVI > 100 µM | 786-0 > 100 µM
